Species on record: Rattus norvegicus
Assay: DrugMatrix - Regimen: Daily Repeat
Format: toxicity, organism-based, Sprague-Dawley
Set-up: regimen Daily Repeat, gender Male, age 6-8 weeks
Details: in vivo, po, route oral GAVAGE, vehicle .5 % CMC; for BASOPHIL / EOSINOPHIL / ERYTHROCYTE COUNT / HEMATOCRIT / HEMOGLOBIN / LEUKOCYTE COUNT / LYMPHOCYTE / MEAN CORPUSCULAR HEMOGLOBIN / MEAN CORPUSCULAR HEMOGLOBIN CONCENTRATION / MEAN CORPUSCULAR VOLUME / MONOCYTE / NEUTROPHIL / PLATELET COUNT: tissue Blood; for ALANINE AMINOTRANSFERASE / ALBUMIN / ALKALINE PHOSPHATASE / ASPARTATE AMINOTRANSFERASE / BLOOD UREA NITROGEN / CHLORIDE / CHOLESTEROL / CREATINE PHOSPHOKINASE / CREATININE / GLUCOSE / PHOSPHORUS / POTASSIUM / SODIUM / TOTAL PROTEIN: tissue Plasma
[1] = 0 mg/kg, 72 h, dose level Control, time 3 day
[2] = 0 mg/kg, 120 h, dose level Control, time 5 day
[3] = 1 mg/kg, 72 h, dose level Low, time 3 day
[4] = 1 mg/kg, 120 h, dose level Low, time 5 day
[5] = 14 mg/kg, 72 h, dose level High, time 3 day
[6] = 14 mg/kg, 120 h, dose level High, time 5 day

CN1C(C(=O)Nc2ccccn2)=C(O)c2ccccc2S1(=O)=O [PIROXICAM]
BASOPHIL [1]: 0%
EOSINOPHIL [1]: 0.33%
ERYTHROCYTE COUNT [1]: 6.03 x10E6/uL
HEMATOCRIT [1]: 38.8%
HEMOGLOBIN [1]: 14.26 G/DL
LEUKOCYTE COUNT [1]: 10.64 x10E3/uL
LYMPHOCYTE [1]: 83.33%
MEAN CORPUSCULAR HEMOGLOBIN [1]: 23.64 pg
MEAN CORPUSCULAR HEMOGLOBIN CONCENTRATION [1]: 36.74 G/DL
MEAN CORPUSCULAR VOLUME [1]: 64.32 fL
MONOCYTE [1]: 3.33%
NEUTROPHIL [1]: 13%
PLATELET COUNT [1]: 1264.4 x10E3/uL
ALANINE AMINOTRANSFERASE [1]: 38.83 u/L
ALBUMIN [1]: 3.55 G/DL
ALKALINE PHOSPHATASE [1]: 368.33 u/L
ASPARTATE AMINOTRANSFERASE [1]: 66.17 u/L
BLOOD UREA NITROGEN [1]: 15.67 mg/dL
CHLORIDE [1]: 104.33 MEQ/L
CHOLESTEROL [1]: 76.5 mg/dL
CREATINE PHOSPHOKINASE [1]: 166.83 u/L
CREATININE [1]: 0.52 mg/dL
GLUCOSE [1]: 173.17 mg/dL
PHOSPHORUS [1]: 11.68 mg/dL
POTASSIUM [1]: 6.43 MEQ/L
SODIUM [1]: 149.5 MEQ/L
TOTAL PROTEIN [1]: 5.93 G/DL
BASOPHIL [2]: 0%
EOSINOPHIL [2]: 0%
ERYTHROCYTE COUNT [2]: 5.88 x10E6/uL
HEMATOCRIT [2]: 37.87%
HEMOGLOBIN [2]: 14.48 G/DL
LEUKOCYTE COUNT [2]: 12.43 x10E3/uL
LYMPHOCYTE [2]: 84.17%
MEAN CORPUSCULAR HEMOGLOBIN [2]: 24.65 pg
MEAN CORPUSCULAR HEMOGLOBIN CONCENTRATION [2]: 38.25 G/DL
MEAN CORPUSCULAR VOLUME [2]: 64.47 fL
MONOCYTE [2]: 4.33%
NEUTROPHIL [2]: 11.5%
PLATELET COUNT [2]: 1182.33 x10E3/uL
ALANINE AMINOTRANSFERASE [2]: 38.67 u/L
ALBUMIN [2]: 3.55 G/DL
ALKALINE PHOSPHATASE [2]: 342.5 u/L
ASPARTATE AMINOTRANSFERASE [2]: 63.33 u/L
BLOOD UREA NITROGEN [2]: 15.5 mg/dL
CHLORIDE [2]: 104 MEQ/L
CHOLESTEROL [2]: 75.5 mg/dL
CREATINE PHOSPHOKINASE [2]: 142.5 u/L
CREATININE [2]: 0.62 mg/dL
GLUCOSE [2]: 165.17 mg/dL
PHOSPHORUS [2]: 10.87 mg/dL
POTASSIUM [2]: 6.85 MEQ/L
SODIUM [2]: 150.17 MEQ/L
TOTAL PROTEIN [2]: 5.93 G/DL
BASOPHIL [3]: 0%
EOSINOPHIL [3]: 0%
ERYTHROCYTE COUNT [3]: 6.55 x10E6/uL
HEMATOCRIT [3]: 42.8%
HEMOGLOBIN [3]: 15.95 G/DL
LEUKOCYTE COUNT [3]: 11.1 x10E3/uL
LYMPHOCYTE [3]: 85.5%
MEAN CORPUSCULAR HEMOGLOBIN [3]: 24.3 pg
MEAN CORPUSCULAR HEMOGLOBIN CONCENTRATION [3]: 37.3 G/DL
MEAN CORPUSCULAR VOLUME [3]: 65.25 fL
MONOCYTE [3]: 3.5%
NEUTROPHIL [3]: 11%
PLATELET COUNT [3]: 1530 x10E3/uL
ALANINE AMINOTRANSFERASE [3]: 31.5 u/L
ALBUMIN [3]: 3.75 G/DL
ALKALINE PHOSPHATASE [3]: 379 u/L
ASPARTATE AMINOTRANSFERASE [3]: 59 u/L
BLOOD UREA NITROGEN [3]: 16.5 mg/dL
CHLORIDE [3]: 102.5 MEQ/L
CHOLESTEROL [3]: 77.5 mg/dL
CREATINE PHOSPHOKINASE [3]: 142.5 u/L
CREATININE [3]: 0.4 mg/dL
GLUCOSE [3]: 174 mg/dL
PHOSPHORUS [3]: 13.7 mg/dL
POTASSIUM [3]: 6.85 MEQ/L
SODIUM [3]: 152 MEQ/L
TOTAL PROTEIN [3]: 6.2 G/DL
BASOPHIL [4]: 0%
EOSINOPHIL [4]: 0.33%
ERYTHROCYTE COUNT [4]: 6.32 x10E6/uL
HEMATOCRIT [4]: 40.2%
HEMOGLOBIN [4]: 15.2 G/DL
LEUKOCYTE COUNT [4]: 12.73 x10E3/uL
LYMPHOCYTE [4]: 86.33%
MEAN CORPUSCULAR HEMOGLOBIN [4]: 24.07 pg
MEAN CORPUSCULAR HEMOGLOBIN CONCENTRATION [4]: 37.83 G/DL
MEAN CORPUSCULAR VOLUME [4]: 63.7 fL
MONOCYTE [4]: 2.33%
NEUTROPHIL [4]: 11%
PLATELET COUNT [4]: 1319.67 x10E3/uL
ALANINE AMINOTRANSFERASE [4]: 36.67 u/L
ALBUMIN [4]: 3.43 G/DL
ALKALINE PHOSPHATASE [4]: 437.33 u/L
ASPARTATE AMINOTRANSFERASE [4]: 64 u/L
BLOOD UREA NITROGEN [4]: 13.67 mg/dL
CHLORIDE [4]: 103 MEQ/L
CHOLESTEROL [4]: 65 mg/dL
CREATINE PHOSPHOKINASE [4]: 156.67 u/L
CREATININE [4]: 0.53 mg/dL
GLUCOSE [4]: 162.67 mg/dL
PHOSPHORUS [4]: 11.97 mg/dL
POTASSIUM [4]: 7.07 MEQ/L
SODIUM [4]: 148.33 MEQ/L
TOTAL PROTEIN [4]: 5.63 G/DL
BASOPHIL [5]: 0%
EOSINOPHIL [5]: 0.67%
ERYTHROCYTE COUNT [5]: 6.72 x10E6/uL
HEMATOCRIT [5]: 42.6%
HEMOGLOBIN [5]: 15.63 G/DL
LEUKOCYTE COUNT [5]: 11.5 x10E3/uL
LYMPHOCYTE [5]: 77.67%
MEAN CORPUSCULAR HEMOGLOBIN [5]: 23.3 pg
MEAN CORPUSCULAR HEMOGLOBIN CONCENTRATION [5]: 36.73 G/DL
MEAN CORPUSCULAR VOLUME [5]: 63.4 fL
MONOCYTE [5]: 1.67%
NEUTROPHIL [5]: 20%
PLATELET COUNT [5]: 1318.33 x10E3/uL
ALANINE AMINOTRANSFERASE [5]: 31.33 u/L
ALBUMIN [5]: 3.67 G/DL
ALKALINE PHOSPHATASE [5]: 301.33 u/L
ASPARTATE AMINOTRANSFERASE [5]: 56.33 u/L
BLOOD UREA NITROGEN [5]: 18.33 mg/dL
CHLORIDE [5]: 104.67 MEQ/L
CHOLESTEROL [5]: 84.67 mg/dL
CREATINE PHOSPHOKINASE [5]: 181.33 u/L
CREATININE [5]: 0.47 mg/dL
GLUCOSE [5]: 193.67 mg/dL
PHOSPHORUS [5]: 14.03 mg/dL
POTASSIUM [5]: 6.9 MEQ/L
SODIUM [5]: 150.67 MEQ/L
TOTAL PROTEIN [5]: 6.03 G/DL
BASOPHIL [6]: 0%
EOSINOPHIL [6]: 0%
ERYTHROCYTE COUNT [6]: 6.6 x10E6/uL
HEMATOCRIT [6]: 41.4%
HEMOGLOBIN [6]: 15.03 G/DL
LEUKOCYTE COUNT [6]: 16.7 x10E3/uL
LYMPHOCYTE [6]: 84.33%
MEAN CORPUSCULAR HEMOGLOBIN [6]: 22.83 pg
MEAN CORPUSCULAR HEMOGLOBIN CONCENTRATION [6]: 36.4 G/DL
MEAN CORPUSCULAR VOLUME [6]: 62.8 fL
MONOCYTE [6]: 0.67%
NEUTROPHIL [6]: 15%
PLATELET COUNT [6]: 1151 x10E3/uL
ALANINE AMINOTRANSFERASE [6]: 37.33 u/L
ALBUMIN [6]: 3.4 G/DL
ALKALINE PHOSPHATASE [6]: 386 u/L
ASPARTATE AMINOTRANSFERASE [6]: 55.33 u/L
BLOOD UREA NITROGEN [6]: 15.33 mg/dL
CHLORIDE [6]: 101.67 MEQ/L
CHOLESTEROL [6]: 67 mg/dL
CREATINE PHOSPHOKINASE [6]: 159.67 u/L
CREATININE [6]: 0.5 mg/dL
GLUCOSE [6]: 174.67 mg/dL
PHOSPHORUS [6]: 14.17 mg/dL
POTASSIUM [6]: 7.1 MEQ/L
SODIUM [6]: 149 MEQ/L
TOTAL PROTEIN [6]: 5.7 G/DL

Reference: ChEMBL document CHEMBL3885881, “DrugMatrix”
